Data: the NIST ThermoML archive (doi:10.1007/s10765-013-1526-8)

Key:
[1] = xn = mol fraction of the nth substance listed; settings: 101 kPa, Liquid; for speed of sound: Sing-around technique in a fixed-path interferometer
[2] = refractive index (Na D-line) (dimensionless); xn = mol fraction of the nth substance listed; settings: 101 kPa, Liquid

Brc1ccccc1 [bromobenzene] + CCCCC(CC)CO
Settings | mass density, [1] [kg/m3] | refractive index, [2] | speed of sound, [1] [m/s] | viscosity, [1] [mPa·s]
298.15 K, x1 = 0.0623 | 846.06 | 1.4348 | 1305 | 7.004
298.15 K, x1 = 0.1321 | 869.44 | 1.4416 | 1295 | 5.672
298.15 K, x1 = 0.202 | 895.09 | 1.4486 | 1290 | 4.56
298.15 K, x1 = 0.2694 | 924.23 | 1.4554 | 1285 | 3.717
298.15 K, x1 = 0.336 | 956.85 | 1.4625 | 1281 | 3.044
298.15 K, x1 = 0.3981 | 991.69 | 1.4693 | 1279 | 2.553
298.15 K, x1 = 0.4625 | 1031.18 | 1.4767 | 1277 | 2.187
298.15 K, x1 = 0.5272 | 1074.92 | 1.4844 | 1273 | 1.923
298.15 K, x1 = 0.5918 | 1122.9 | 1.4925 | 1268 | 1.728
298.15 K, x1 = 0.6627 | 1179.58 | 1.502 | 1259 | 1.594
298.15 K, x1 = 0.7278 | 1235.29 | 1.5112 | 1248 | 1.49
298.15 K, x1 = 0.7941 | 1295.12 | 1.5212 | 1236 | 1.444
298.15 K, x1 = 0.8633 | 1359.7 | 1.5325 | 1216 | 1.359
298.15 K, x1 = 0.9266 | 1418.41 | 1.5433 | 1194 | 1.266
298.15 K, x1 = 1 | 1488.12 | 1.557 | 1153 | 1.065
303.15 K, x1 = 0.0623 | 842.3 | 1.4332 | 1291 | 5.889
303.15 K, x1 = 0.1321 | 864.98 | 1.4403 | 1282 | 4.765
303.15 K, x1 = 0.202 | 891.19 | 1.4472 | 1276 | 3.838
303.15 K, x1 = 0.2694 | 920.76 | 1.4542 | 1272 | 3.126
303.15 K, x1 = 0.336 | 952.81 | 1.4611 | 1270 | 2.577
303.15 K, x1 = 0.3981 | 986.69 | 1.4678 | 1268 | 2.197
303.15 K, x1 = 0.4625 | 1026.09 | 1.475 | 1266 | 1.907
303.15 K, x1 = 0.5272 | 1069.83 | 1.4826 | 1264 | 1.702
303.15 K, x1 = 0.5918 | 1117.3 | 1.4906 | 1261 | 1.548
303.15 K, x1 = 0.6627 | 1173.8 | 1.5 | 1254 | 1.458
303.15 K, x1 = 0.7278 | 1229.12 | 1.5092 | 1241 | 1.39
303.15 K, x1 = 0.7941 | 1288.41 | 1.5191 | 1226 | 1.355
303.15 K, x1 = 0.8633 | 1351.6 | 1.5303 | 1206 | 1.297
303.15 K, x1 = 0.9266 | 1410.1 | 1.5412 | 1183 | 1.205
303.15 K, x1 = 1 | 1481.4 | 1.555 | 1138 | 1.005
308.15 K, x1 = 0.0623 | 837.02 | 1.4306 | 1279 | 5.101
308.15 K, x1 = 0.1321 | 859.74 | 1.4376 | 1273 | 4.181
308.15 K, x1 = 0.202 | 886.06 | 1.4447 | 1267 | 3.414
308.15 K, x1 = 0.2694 | 915.17 | 1.4517 | 1263 | 2.814
308.15 K, x1 = 0.336 | 947.49 | 1.4587 | 1259 | 2.35
308.15 K, x1 = 0.3981 | 981.89 | 1.4655 | 1254 | 2.004
308.15 K, x1 = 0.4625 | 1021.03 | 1.4728 | 1251 | 1.722
308.15 K, x1 = 0.5272 | 1064.57 | 1.4805 | 1247 | 1.522
308.15 K, x1 = 0.5918 | 1111.88 | 1.4886 | 1241 | 1.37
308.15 K, x1 = 0.6627 | 1168.02 | 1.4981 | 1232 | 1.265
308.15 K, x1 = 0.7278 | 1222.21 | 1.5072 | 1218 | 1.192
308.15 K, x1 = 0.7941 | 1279.2 | 1.5171 | 1203 | 1.149
308.15 K, x1 = 0.8633 | 1339.82 | 1.528 | 1183 | 1.099
308.15 K, x1 = 0.9266 | 1398.8 | 1.5388 | 1161 | 1.052
308.15 K, x1 = 1 | 1474.58 | 1.553 | 1122 | 0.972
